Literature values, collected in patent US20210023267A1, “POLYMER-PERMEATED GRAFTS AND METHODS OF MAKING AND USING THE SAME” (BIOAESTHETICS CORPORATION, priority 2018, published 2021).
Values after ≈ are worked out from the molar mass of the structure shown. Where two headings read alike, the source gives them in different places.

Test system: S. aureus

## CN[C@H](CC(C)C)C(=O)N[C@H]1C(=O)N[C@@H](CC(N)=O)C(=O)N[C@H]2C(=O)N[C@H]3C(=O)N[C@H](C(=O)N[C@H](C(=O)O)c4cc(O)cc(O)c4-c4cc3ccc4O)[C@H](O)c3ccc(c(Cl)c3)Oc3cc2cc(c3O[C@@H]2O[C@H](CO)[C@@H](O)[C@H](O)[C@H]2O[C@H]2C[C@](C)(N)[C@H](O)[C@H](C)O2)Oc2ccc(cc2Cl)[C@H]1O [vancomycin]
S. aureus
  minimum inhibitory concentration: 1 µg/mL (≈ 0.69 µM)
S. aureus strains with complete resistance to vancomycin
  minimum inhibitory concentration: 16 µg/mL (≈ 11 µM)
